Here are results for 5 molecules from patent publication US20020102688A1, “Methods and products for the synthesis of oligosaccharide structures on glycoproteins, glycolipids, or as free molecules, and for the isolation of cloned genetic sequences that determine these structures” (The Regents of the University of Michigan, priority 1990, published 2002).

In one experiment the target is T1, Fuc-TV (Homo sapiens, UniProt Q11128).
T1 construct: a 1.94 kb Earl-Xbal fragment containing the entire open reading frame was cloned into a mammalian expression vector; expressed in transfected cells; host or cells: COS-1 cells, transient transfection, 1% Triton X-100 extract
T1 sequence (Q11128 1-374): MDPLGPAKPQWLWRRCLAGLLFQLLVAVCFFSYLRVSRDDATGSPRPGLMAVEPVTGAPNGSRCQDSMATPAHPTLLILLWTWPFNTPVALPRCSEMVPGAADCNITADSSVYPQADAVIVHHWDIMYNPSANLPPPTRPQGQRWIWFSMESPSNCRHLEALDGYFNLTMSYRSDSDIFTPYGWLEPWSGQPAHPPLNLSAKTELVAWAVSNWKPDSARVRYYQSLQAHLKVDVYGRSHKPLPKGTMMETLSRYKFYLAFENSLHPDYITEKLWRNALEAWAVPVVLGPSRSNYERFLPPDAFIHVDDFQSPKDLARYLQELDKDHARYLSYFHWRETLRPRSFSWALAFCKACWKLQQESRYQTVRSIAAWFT
As to the kind of experiment: Fucosyltransferase assay, extracts of COS-1 cells transfected with pCDNA1-Fuc-TV. In kind it is biochemical. As to conditions: for utilization as acceptor substrate by Fuc-TV (in words): extracts of COS-1 cells transfected with pCDNA1-Fuc-TV; for Relative Activity (%) with Fuc-TV: relative product formation rate, N-acetyllactosamine = 100, acceptor 20 mM (2-fucosyllactose 5 mM), GDP-[14C]fucose 3 μM, transfected COS-1 cell extract. On the procedure:
Cell extracts containing 1% Triton X-100 were prepared from transfected COS-1 cells. Fucosyltransferase assays were performed in a total volume of 20 μl, and contained 25 mM sodium cacodylate, pH6.2, 5 mM ATP, 10 mM L-fucose, 10 mM MnCl2, 3 μM GDP-^14C-fucose, and 5 μl of cell extract. Acceptor substrates were added to a final concentration of 20 mM. Reactions were incubated at 37° C. for 1 hour and terminated by addition of 20 μl ethanol, followed by addition of 600 μl of distilled water. An aliquot of each reaction (50 μl) was subjected to scintillation counting to determine total radioactivity in the reaction. Another aliquot (200 μl) was applied to a column containing 400 μl of Dowex 1X2-400, formate form. The flow through fraction, and […] of a subsequent water elution, were collected and pooled, and an aliquot was subjected to scintillation counting to quantitate incorporation of radioactive fucose into neutral product.
(§1) Table 2 presents the relative product formation rates obtained with low molecular weight acceptor substrates using cell extracts containing recombinant human α(1,3)fucosyltransferases expressed in transfected COS-1 cells, as described in the preceding sections. Fucosyltransferase assays were performed as described in detail in Lowe et al, J. Biol. Chem., (1991), 266:17467-17477; Weston et al, J. Biol. Chem. (1992), 267:4152-4160; and Kukowska-Latallo et al, Genes. Devel., (1990), 4:1288-1303. For each enzyme, the same extract was used, with saturating amounts of each acceptor oligosaccharide (20 mM, except for 2′-fucosylactose which was used at 5 mM), and GDP-^14C]fucose was present at 3 μM. Reaction times and enzyme amounts were adjusted to ensure a linear rate of product formation (less than 15% of the GDP-fucose substrate consumed). Products were separated by column chromatography and quantitated by liquid scintillation counting, and their structures were confirmed by high performance liquid chromatography, as described in Lowe et al, J. Biol. Chem., (1991), 266:17467-17477; Weston et al, J. Biol. Chem. (1992), 267:4152-4160; and Kukowska-Latallo et al, Genes. Devel., (1990), 4:1288-1303.

Another experiment addresses T2, Fuc-TVI (Homo sapiens, UniProt P51993).
T2 construct: a 1.2 kb fragment containing the entire open reading frame was generated by the polymerase chain reaction; expressed in transfected cells; host or cells: COS-1 cells, transient transfection, 1% Triton X-100 extract
T2 sequence (P51993 1-359): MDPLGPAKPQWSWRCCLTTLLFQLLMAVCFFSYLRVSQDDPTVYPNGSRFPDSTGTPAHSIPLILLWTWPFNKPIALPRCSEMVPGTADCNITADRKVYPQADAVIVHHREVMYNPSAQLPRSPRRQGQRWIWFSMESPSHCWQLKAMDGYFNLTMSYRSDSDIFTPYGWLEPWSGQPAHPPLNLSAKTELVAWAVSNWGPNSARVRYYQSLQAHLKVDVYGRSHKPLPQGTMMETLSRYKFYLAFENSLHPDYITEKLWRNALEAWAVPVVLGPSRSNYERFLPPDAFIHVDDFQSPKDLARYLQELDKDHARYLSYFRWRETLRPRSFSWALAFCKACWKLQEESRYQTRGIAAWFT
The experiment can be described thus: Fucosyltransferase assay, extracts of COS-1 cells transfected with pCDNA1-Fuc-TVI. It is filed as biochemical. Particulars: for utilization as acceptor substrate by Fuc-TVI (in words): extracts of COS-1 cells transfected with pCDNA1-Fuc-TVI; for Relative Activity (%) with Fuc-TVI: relative product formation rate, N-acetyllactosamine = 100, acceptor 20 mM (2-fucosyllactose 5 mM), GDP-[14C]fucose 3 μM, transfected COS-1 cell extract. The protocol:
Cell extracts containing 1% Triton X-100 were prepared from transfected COS-1 cells, using procedures described previously (Kukowska-Latallo et al, Genes Devel., 4:1288-1303, 1990). Fucosyltransferase assays were performed in a total volume of 20 μl, and contained 50 mM sodium cacodylate, pH 6.2, 5 mM ATP, 10 mM fucose, 20 mM MnCl2, 3 μM GDP-^14C-fucose, and 5 μl (30 μg protein) of cell extract. Acceptor substrates were added to a final concentration of 20 mM. Reactions were incubated at 37° C. for 1 hour and terminated by addition of 20 μl ethanol, followed by addition of 600 μl of distilled water. An aliquot of each reaction (50 μl) was subjected to scintillation counting to determine total radioactivity in the reaction. Another aliquot (200 μl) was applied to a column containing 400 μl of Dowex 1X2-400, formate form (Rajan et al, J. Biol. Chem., 264:11158-11167, 1989). The flow through fraction, and […] of a subsequent water elution, were collected and pooled, and an aliquot was subjected to scintillation counting to quantitate incorporation of radioactive fucose into neutral product.
as §1

Experiment [1] deals with T3, agglutinin from Erythrina cristagalli (ECA) (Erythrina crista-galli, UniProt P83410).
T3 construct: purchased E-Y Labs (San Mateo, Calif.)
T3 sequence (P83410 1-239): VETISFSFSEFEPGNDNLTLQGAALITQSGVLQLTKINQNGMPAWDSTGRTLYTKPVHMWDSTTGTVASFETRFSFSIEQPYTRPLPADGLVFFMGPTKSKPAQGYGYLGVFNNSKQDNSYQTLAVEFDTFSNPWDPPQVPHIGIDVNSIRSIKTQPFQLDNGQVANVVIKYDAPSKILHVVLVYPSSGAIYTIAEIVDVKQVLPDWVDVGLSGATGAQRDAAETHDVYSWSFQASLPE
As to the kind of experiment: Hapten inhibition of FITC-ECA binding to L cells (FACS). Particulars: FITC-labeled ECA preincubated with hapten. The protocol:
These would represent potential acceptor molecules for a complementing human (α-1,2)fucosyltransferase activity and would allow the resulting surface-expressed Fucα(1,2)Gal linkages to be detected with anti-H antibody. The agglutinin from Erythrina cristagalli (ECA) was used for this analysis. […] L cells were stained with purified, FITC-labeled ECA, or with FITC-labeled ECA that had been preincubated with the hapten N-acetyllactosamine and were subjected to FACS analysis.

Regarding `CC(=O)N[C@@H]1[C@@H](O[C@@H]2O[C@H](CO)[C@H](O)[C@H](O)[C@H]2O)[C@H](O)[C@@H](CO)O[C@@H]1O` [lacto-N-biose I], on Fuc-TV, the “utilization as acceptor substrate by Fuc-TV (in words)” value (“utilization … by Fuc-TV (in words)” for short) is listed as “low efficiency” and the “Relative Activity (%) with Fuc-TV” value amounted to 10%. On Fuc-TVI, the “utilization as acceptor substrate by Fuc-TVI (in words)” value (from here on “utilization … by Fuc-TVI (in words)”) is on record as “not utilized” and the “Relative Activity (%) with Fuc-TVI” value was less than 1%.
On to `CC(=O)N[C@H]1C(O)O[C@H](CO)[C@@H](O[C@@H]2O[C@H](CO)[C@H](O)[C@H](O)[C@H]2O)[C@@H]1O` (stereo partly drawn) [N-acetyllactosamine], for which, at Fuc-TV, the “utilization … by Fuc-TV (in words)” value is reported as “utilized” and the “Relative Activity (%) with Fuc-TV” value turned out to be 100%. Moreover, at Fuc-TVI, the “utilization … by Fuc-TVI (in words)” value is “utilized” and the “Relative Activity (%) with Fuc-TVI” value worked out at 100%. Further, the “inhibition of ECA binding to L cells by hapten” value in experiment [1] is on record as “effectively inhibited”.
For the molecule `CC(=O)NC1C(O)OC(CO)C(OC2OC(CO)C(O)C(OC3(C(=O)O)CC(O)C(NC(C)=O)C(C(O)C(O)CO)O3)C2O)C1O` (stereo not drawn) [α(2,3)sialyllactosamine, NeuAcα(2→3)Galβ(1→4)GlcNAc], at Fuc-TV, the “utilization … by Fuc-TV (in words)” value was “efficiently utilized” and the “Relative Activity (%) with Fuc-TV” value came to 115%. For the same molecule, at Fuc-TVI, the “utilization … by Fuc-TVI (in words)” value is recorded as “efficiently utilized” and the “Relative Activity (%) with Fuc-TVI” value came to 110%.
On to `OC[C@H]1O[C@@H](O[C@H]2[C@H](O)[C@@H](O)C(O)O[C@@H]2CO)[C@H](O)[C@@H](O)[C@H]1O` (stereo partly drawn) [lactose], for which, at Fuc-TV, the “utilization … by Fuc-TV (in words)” value is recorded as “substantially lower efficiencies” and the “Relative Activity (%) with Fuc-TV” value came out at 11%. For the same molecule, at Fuc-TVI, the “utilization … by Fuc-TVI (in words)” value is “did not function as acceptor substrates” and the “Relative Activity (%) with Fuc-TVI” value is on record as less than 1%.
Taken in the same sequence, the figures for “Fucα(1,2)Galβ(1,4)Glc [2-fucosyllactose]” were “substantially lower efficiencies”, 42%, “did not function as acceptor substrates” and less than 1%.
